Results reported in ChEMBL document CHEMBL1201862, “PubChem BioAssay data set” (2004).
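1) Cells in 96-well plates. 2) Compound, 48 h, 5 concentrations. 3) Linear interpolation between surrounding doses. 4) Unreached endpoint = highest concentration. GI50 marks 50% less growth.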 Activity calls are given as the source filed them. Rule as the data show it: active = GI50 up to about 1.1 µM and inactive = higher.

What was measured:
Test in all cases: NCI-60 cell line screen, 48 h
RXF 393 = test system: RXF 393
UO-31 = test system: UO-31
SW-620 = test system: SW-620
DLD-1 = test system: DLD-1
M19-MEL = test system: M19-MEL
MOLT-4 = test system: MOLT-4
LXFL 529 = test system: LXFL 529
SK-OV-3 = test system: SK-OV-3
UACC-257 = test system: UACC-257
Malme-3M = test system: Malme-3M
RXF 631 = test system: RXF 631
XF498 = test system: XF498
HOP-62 = test system: HOP-62
EKVX = test system: EKVX
COLO 205 = test system: COLO 205
SF-295 = test system: SF-295
ACHN = test system: ACHN
NCI-H23 = test system: NCI-H23
HCT-15 = test system: HCT-15
OVCAR-3 = test system: OVCAR-3
NCI-H226 = test system: NCI-H226
TK-10 = test system: TK-10
NCI-H522 = test system: NCI-H522
A549 = test system: A549
KM12 = test system: KM12
SNB-78 = test system: SNB-78
HCC 2998 = test system: HCC 2998
SK-MEL-2 = test system: SK-MEL-2
SF-539 = test system: SF-539
M14 = test system: M14
NCI-H460 = test system: NCI-H460
A498 = test system: A498
RPMI-8226 = test system: RPMI-8226
SN12C = test system: SN12C
K562 = test system: K562
CAKI-1 = test system: CAKI-1
UACC-62 = test system: UACC-62
OVCAR-4 = test system: OVCAR-4
SNB-19 = test system: SNB-19
CCRF-CEM = test system: CCRF-CEM
IGROV-1 = test system: IGROV-1
HCT-116 = test system: HCT-116
SK-MEL-5 = test system: SK-MEL-5
DMS-273 = test system: DMS-273
SK-MEL-28 = test system: SK-MEL-28
LOX IMVI = test system: LOX IMVI
OVCAR-8 = test system: OVCAR-8
DMS-114 = test system: DMS-114
HT-29 = test system: HT-29
U-251 = test system: U-251
786-0 = test system: 786-0
SF-268 = test system: SF-268
KM-20L2 = test system: KM-20L2
HOP-92 = test system: HOP-92
SNB-75 = test system: SNB-75
OVCAR-5 = test system: OVCAR-5
HL-60 = test system: HL-60
SR = test system: SR
HOP-18 = test system: HOP-18

## CC(=O)NC(CCCCN(Cc1ccccc1)C(=O)N(C)N=O)C(=O)NCc1ccccc1 (stereo not drawn)
RXF 393
  GI50: 72.1 µM (inactive)
UO-31
  GI50: 47.3 µM (inactive)
SW-620
  GI50: > 100 µM (inactive)
DLD-1
  GI50: > 100 µM (inactive)
M19-MEL
  GI50: > 100 µM (inactive)
MOLT-4
  GI50: 39.6 µM (inactive)
LXFL 529
  GI50: 51.5 µM (inactive)
SK-OV-3
  GI50: > 100 µM (inactive)
UACC-257
  GI50: > 100 µM (inactive)
Malme-3M
  GI50: 82 µM (inactive)
RXF 631
  GI50: > 100 µM (inactive)
XF498
  GI50: > 100 µM (inactive)
HOP-62
  GI50: > 100 µM (inactive)
EKVX
  GI50: 90.4 µM (inactive)
COLO 205
  GI50: 88.3 µM (inactive)
SF-295
  GI50: > 100 µM (inactive)
ACHN
  GI50: > 100 µM (inactive)
NCI-H23
  GI50: > 100 µM (inactive)
HCT-15
  GI50: > 100 µM
OVCAR-3
  GI50: > 100 µM (inactive)
NCI-H226
  GI50: 36.5 µM (inactive)
TK-10
  GI50: > 100 µM (inactive)
NCI-H522
  GI50: 16.8 µM (inactive)
A549
  GI50: 95.9 µM (inactive)
KM12
  GI50: > 100 µM (inactive)
SNB-78
  GI50: > 100 µM (inactive)
HCC 2998
  GI50: > 100 µM (inactive)
SK-MEL-2
  GI50: > 100 µM (inactive)
SF-539
  GI50: > 100 µM (inactive)
M14
  GI50: > 100 µM (inactive)
NCI-H460
  GI50: 88.7 µM (inactive)
A498
  GI50: > 100 µM (inactive)
RPMI-8226
  GI50: 40.6 µM (inactive)
SN12C
  GI50: > 100 µM (inactive)
K562
  GI50: 61 µM (inactive)
CAKI-1
  GI50: > 100 µM (inactive)
UACC-62
  GI50: > 100 µM (inactive)
OVCAR-4
  GI50: 62.2 µM (inactive)
SNB-19
  GI50: > 100 µM (inactive)
CCRF-CEM
  GI50: 59.6 µM (inactive)
IGROV-1
  GI50: > 100 µM (inactive)
HCT-116
  GI50: 71.3 µM (inactive)
SK-MEL-5
  GI50: 47.1 µM (inactive)
DMS-273
  GI50: 97.3 µM (inactive)
SK-MEL-28
  GI50: > 100 µM (inactive)
LOX IMVI
  GI50: > 100 µM (inactive)
OVCAR-8
  GI50: > 100 µM (inactive)
DMS-114
  GI50: 43.6 µM (inactive)
HT-29
  GI50: 83.9 µM (inactive)
U-251
  GI50: > 100 µM (inactive)
786-0
  GI50: > 100 µM (inactive)
SF-268
  GI50: 38.9 µM (inactive)
KM-20L2
  GI50: > 100 µM (inactive)
HOP-92
  GI50: 61.8 µM (inactive)
SNB-75
  GI50: 31.9 µM (inactive)
OVCAR-5
  GI50: > 100 µM (inactive)

## COC1(OC)CC2C=C(S(=O)(=O)c3ccccc3)C1N(Cc1ccccc1)C2=O (stereo not drawn)
RXF 393
  GI50: 17.9 µM (inactive)
UO-31
  GI50: 35.5 µM (inactive)
SW-620
  GI50: 22.6 µM (inactive)
HL-60
  GI50: 16.2 µM (inactive)
DLD-1
  GI50: 24.3 µM (inactive)
M19-MEL
  GI50: 32.4 µM (inactive)
MOLT-4
  GI50: 23.2 µM (inactive)
LXFL 529
  GI50: 20.3 µM (inactive)
SK-OV-3
  GI50: 88.1 µM (inactive)
UACC-257
  GI50: 22.6 µM (inactive)
Malme-3M
  GI50: 24.9 µM (inactive)
RXF 631
  GI50: 26.3 µM (inactive)
XF498
  GI50: 19.1 µM (inactive)
HOP-62
  GI50: 97.7 µM (inactive)
EKVX
  GI50: 91.4 µM (inactive)
COLO 205
  GI50: 19.9 µM (inactive)
SF-295
  GI50: 50.9 µM (inactive)
ACHN
  GI50: 41.3 µM (inactive)
NCI-H23
  GI50: 15.2 µM (inactive)
OVCAR-3
  GI50: 17.1 µM (inactive)
NCI-H226
  GI50: 29.9 µM (inactive)
TK-10
  GI50: 26.6 µM (inactive)
NCI-H522
  GI50: 16.4 µM (inactive)
A549
  GI50: 33 µM (inactive)
KM12
  GI50: 24.7 µM (inactive)
SNB-78
  GI50: 21.2 µM (inactive)
HCC 2998
  GI50: 60.3 µM (inactive)
SF-539
  GI50: 21 µM (inactive)
M14
  GI50: 18.9 µM (inactive)
NCI-H460
  GI50: 29.3 µM (inactive)
A498
  GI50: 22.4 µM (inactive)
SN12C
  GI50: 23 µM (inactive)
K562
  GI50: 35 µM (inactive)
UACC-62
  GI50: 20.2 µM (inactive)
OVCAR-4
  GI50: 29.2 µM (inactive)
SNB-19
  GI50: 39.8 µM (inactive)
CCRF-CEM
  GI50: 16.2 µM (inactive)
IGROV-1
  GI50: 37.2 µM (inactive)
HCT-116
  GI50: 13.4 µM (inactive)
SK-MEL-5
  GI50: 32.3 µM (inactive)
SK-MEL-28
  GI50: 31 µM (inactive)
LOX IMVI
  GI50: 16.1 µM (inactive)
OVCAR-8
  GI50: 23 µM (inactive)
DMS-114
  GI50: 20.3 µM (inactive)
HT-29
  GI50: 28.1 µM (inactive)
SR
  GI50: 28.9 µM (inactive)
HOP-18
  GI50: > 100 µM (inactive)
U-251
  GI50: 34.8 µM (inactive)
786-0
  GI50: 39.4 µM (inactive)
SF-268
  GI50: > 100 µM (inactive)
KM-20L2
  GI50: 28.9 µM (inactive)
HOP-92
  GI50: 28.3 µM (inactive)
SNB-75
  GI50: 36.5 µM (inactive)

## Nc1cccc2c1C(=O)c1cccc(N)c1C2=O
RXF 393
  GI50: 46.3 µM (inactive)
UO-31
  GI50: > 100 µM (inactive)
SW-620
  GI50: > 100 µM (inactive)
DLD-1
  GI50: > 100 µM (inactive)
M19-MEL
  GI50: > 100 µM (inactive)
MOLT-4
  GI50: > 100 µM (inactive)
LXFL 529
  GI50: > 100 µM (inactive)
SK-OV-3
  GI50: > 100 µM (inactive)
UACC-257
  GI50: > 100 µM (inactive)
Malme-3M
  GI50: > 100 µM (inactive)
RXF 631
  GI50: > 100 µM (inactive)
XF498
  GI50: 19.4 µM (inactive)
HOP-62
  GI50: > 100 µM (inactive)
EKVX
  GI50: > 100 µM (inactive)
COLO 205
  GI50: > 100 µM (inactive)
ACHN
  GI50: > 100 µM (inactive)
NCI-H23
  GI50: > 100 µM (inactive)
HCT-15
  GI50: > 100 µM
OVCAR-3
  GI50: > 100 µM (inactive)
NCI-H226
  GI50: > 100 µM (inactive)
TK-10
  GI50: > 100 µM (inactive)
NCI-H522
  GI50: > 100 µM (inactive)
A549
  GI50: > 100 µM (inactive)
KM12
  GI50: > 100 µM (inactive)
SNB-78
  GI50: > 100 µM (inactive)
HCC 2998
  GI50: > 100 µM (inactive)
SK-MEL-2
  GI50: > 100 µM (inactive)
SF-539
  GI50: > 100 µM (inactive)
M14
  GI50: > 100 µM (inactive)
NCI-H460
  GI50: > 100 µM (inactive)
A498
  GI50: > 100 µM (inactive)
RPMI-8226
  GI50: > 100 µM (inactive)
SN12C
  GI50: > 100 µM (inactive)
K562
  GI50: > 100 µM (inactive)
CAKI-1
  GI50: > 100 µM (inactive)
UACC-62
  GI50: > 100 µM (inactive)
OVCAR-4
  GI50: > 100 µM (inactive)
SNB-19
  GI50: > 100 µM (inactive)
CCRF-CEM
  GI50: > 100 µM (inactive)
IGROV-1
  GI50: > 100 µM (inactive)
HCT-116
  GI50: > 100 µM (inactive)
SK-MEL-5
  GI50: > 100 µM (inactive)
DMS-273
  GI50: > 100 µM (inactive)
SK-MEL-28
  GI50: > 100 µM (inactive)
LOX IMVI
  GI50: > 100 µM (inactive)
OVCAR-8
  GI50: > 100 µM (inactive)
HT-29
  GI50: > 100 µM (inactive)
U-251
  GI50: > 100 µM (inactive)
786-0
  GI50: > 100 µM (inactive)
SF-268
  GI50: > 100 µM (inactive)
KM-20L2
  GI50: > 100 µM (inactive)
HOP-92
  GI50: > 100 µM (inactive)
SNB-75
  GI50: > 100 µM (inactive)
OVCAR-5
  GI50: > 100 µM (inactive)
